# Measured values published in patent publication US20260315446A1, “ANTIFUNGAL COMPOUNDS AND USES THEREOF” (priority 2023, published 2026).
# How the values were obtained:
# [1] = tested on: Aspergillus fumigatus (akuBKu80 hFKBP12); conditions: previously shown; cited from earlier work
# [2] = tested on: C. neoformans H99; assay: Intravenous model of disseminated cryptococcosis, brain fungal burden (Example 1); format: in vivo, Cryptococcus neoformans in mice
# Description: The high in vitro antifungal activity of JH-FK-05 presented promising evidence that it might effectively reduce fungal burden in the context of murine infection. Two models of C. neoformans infection were employed to test this hypothesis (FIG. 7A). First, in the intranasal model, animals were anesthetized and infected with 10^5 cells of wild-type H99 C. neoformans via instillation in the animal's nares. These animals were monitored for 14 days and then sacrificed. This model tests the efficacy of JH-FK-05 to treat a pulmonary infection, which is the most common manifestation of early-stage cryptococcosis in patients. Second, the intravenous (i.v.) model approximates the disseminated stage of disease. […]
# Wild-type H99 C. neoformans cells were grown overnight at 30° C. in a roller drum in yeast extract-peptone-dextrose (YPD) medium. […] H99 cells were counted with a hemacytometer and diluted to 2×10^6 cells/mL in PBS for the pulmonary model and 2×10^5 cells/mL in PBS for the disseminated model. […]
# Mice were euthanized by CO2 inhalation at the predetermined experimental endpoint. […] A 100-μL aliquot of each dilution was plated on antibiotic plates (YPD, 50 μg/mL ampicillin, and 30 µg/mL chloramphenicol), incubated for 48 to 72 h at 30° C., and assessed for CFU. […] Statistical significance was calculated using an ordinary one-way analysis of variance (ANOVA) with Tukey's multiple-comparison test.
# [3] = tested on: C. neoformans strain H99; assay: Murine cryptococcal infection, lung fungal burden (Example 3); format: in vivo, Cryptococcus neoformans in A/J mice; conditions: once daily; fluconazole 12 mg/kg, JH-FK-08 40 mg/kg
# Method: In vivo antifungal activity and therapeutic benefit were assayed by investigating the impact of the FK520 analog on organ fungal burden during cryptococcosis. Specifically, the in vivo efficacy of JH-FK-08 on fungal burden was assessed using A/J female mice. Immunodeficient A/J mice were selected in part due to their defect in complement component five and their susceptibility to cryptococcal infection. Treatment groups included vehicle of 10% Kolliphor: ethanol (1:1) in phosphate-buffered saline (PBS), […], or the fluconazole and JH-FK-08 combination, […] infection. […] Mice were intranasally infected with C. neoformans strain H99, and fungal burden in the lung, spleen, and brain was assessed after 14 days of treatment.
# (§1) C. neoformans inoculum was prepared by growing a 5-mL overnight YPD culture spinning in a tissue culture roller drum at 30° C. Cells were pelleted by centrifugation and washed in sterile PBS three times. Cell density was determined by hemocytometer, and cells were diluted to 2×10^6 cells/mL. Mice (10 to 20 g) were infected with 10^5 cells of C. neoformans H99. For inhalation infection, animals were anesthetized with isoflurane before 50 μL of inoculum was pipetted onto the upright nasal passages of each animal. Following inhalation of the inoculum, animals were monitored for post anesthesia recovery. Treatment of animals began 4 hours post infection and was continued for 14 days. Fungal burden was assessed 24 h after the final dose.
# For survival curve analysis, animals were monitored until reaching defined humane end points, including social isolation, hunched posture, weight loss, lack of grooming, and labored breathing, and were then euthanized via CO2 inhalation. […] One hundred microliters of each dilution was plated on YPD plates supplemented with YPD 50 μg/mL ampicillin and 30 μg/mL chloramphenicol, incubated at 30° C. for 2 days, and assessed for colony-forming units. CFU per organ weight was calculated and plotted using GraphPad Prism 9.
# [4] = tested on: C. neoformans strain H99; assay: Murine cryptococcal infection, brain fungal burden (Example 3); format: in vivo, Cryptococcus neoformans in A/J mice; conditions: 14 days; fluconazole 6 mg/kg, JH-FK-08 40 mg/kg, i.p. twice per day
# Method: In vivo antifungal activity and therapeutic benefit were assayed by investigating the impact of the FK520 analog on organ fungal burden during cryptococcosis. Specifically, the in vivo efficacy of JH-FK-08 on fungal burden was assessed using A/J female mice. Immunodeficient A/J mice were selected in part due to their defect in complement component five and their susceptibility to cryptococcal infection. Treatment groups included vehicle of 10% Kolliphor: ethanol (1:1) in phosphate-buffered saline (PBS), 6 mg/kg fluconazole, 40 mg/kg JH-FK-08, or the fluconazole and JH-FK-08 combination, all given via intraperitoneal (i.p.) injection twice per day beginning at 4 hours post infection. […] Mice were intranasally infected with C. neoformans strain H99, and fungal burden in the lung, spleen, and brain was assessed after 14 days of treatment.
# as §1, with “For inhalation infection, animals were anesthetized with isoflurane before 50 μL of inoculum was pipetted onto the upright nasal passages of each animal.” left out, “Treatment of animals began 4 hours post infection and was continued for 14 days.” left out, “dose. […]” for “dose.”
# [5] = tested on: C. neoformans strain H99; assay: Histopathological analysis of lung tissue; format: in vivo, Cryptococcus neoformans in A/J mice; conditions: infected lung, PAS and H&E staining
compound,measurement,setting,value
"C=CCC1C=C(C)CC(C)CC(OC)C2OC(O)(C(=O)C(=O)N3CCCCC3C(=O)OC(C(C)=CC3CCC(O)C(OC)C3)C(C)C(O)CC1=O)C(C)CC2OC (stereo not drawn) [FK506, reference compound]",resistance of hFKBP12-expressing strain,[1],completely resistant
CC[C@@H]1/C=C(\C)C[C@H](C)C[C@H](OC)[C@H]2O[C@@](O)(C(=O)C(=O)N3CCCC[C@H]3C(=O)O[C@H](/C(C)=C/[C@@H]3CC[C@@H](O)[C@H](OC)C3)[C@H](C)[C@@H](O)C/C1=N/NC(C)=O)[C@H](C)C[C@@H]2OC [JH-FK-05],reduction of brain fungal burden,"[2]; day 7, JH-FK-05 60 mg/kg, fluconazole 12 mg/kg, i.p. daily",2 fold
same,blood-brain barrier crossing,[2]; inferred from brain fungal burden,can cross the blood-brain barrier
CC[C@@H]1/C=C(\C)C[C@H](C)C[C@H](OC)[C@H]2O[C@@](O)(C(=O)C(=O)N3CCCC[C@H]3C(=O)O[C@H](/C(C)=C/C3CC[C@@H](O)[C@H](OC)C3)[C@H](C)[C@@H](O)C/C1=N/NC(=O)OC)[C@H](C)C[C@@H]2OC (stereo partly drawn) [JH-FK-08],lung fungal burden reduction,[3],limited efficacy in reducing lung fungal burden
same,brain fungal burden,[4],no detectable fungal burden
same,inflammatory response in lung tissue,[5],expected granulomatous inflammatory response admixed with mature lymphocytes and neutrophils
